According to ChEMBL document CHEMBL5465560, “Selectivity Literature for EUbOPEN Chemogenomic Library” (2024):

Columns and labels:
[1] = biological target: T1, Protein kinase C epsilon type (Homo sapiens) (UniProt Q02156); assay: Selectivity interaction (KinomeScan (DiscoverX)) EUB0000229b PRKCE; settings: at 10 µM
T1 sequence (whole entry): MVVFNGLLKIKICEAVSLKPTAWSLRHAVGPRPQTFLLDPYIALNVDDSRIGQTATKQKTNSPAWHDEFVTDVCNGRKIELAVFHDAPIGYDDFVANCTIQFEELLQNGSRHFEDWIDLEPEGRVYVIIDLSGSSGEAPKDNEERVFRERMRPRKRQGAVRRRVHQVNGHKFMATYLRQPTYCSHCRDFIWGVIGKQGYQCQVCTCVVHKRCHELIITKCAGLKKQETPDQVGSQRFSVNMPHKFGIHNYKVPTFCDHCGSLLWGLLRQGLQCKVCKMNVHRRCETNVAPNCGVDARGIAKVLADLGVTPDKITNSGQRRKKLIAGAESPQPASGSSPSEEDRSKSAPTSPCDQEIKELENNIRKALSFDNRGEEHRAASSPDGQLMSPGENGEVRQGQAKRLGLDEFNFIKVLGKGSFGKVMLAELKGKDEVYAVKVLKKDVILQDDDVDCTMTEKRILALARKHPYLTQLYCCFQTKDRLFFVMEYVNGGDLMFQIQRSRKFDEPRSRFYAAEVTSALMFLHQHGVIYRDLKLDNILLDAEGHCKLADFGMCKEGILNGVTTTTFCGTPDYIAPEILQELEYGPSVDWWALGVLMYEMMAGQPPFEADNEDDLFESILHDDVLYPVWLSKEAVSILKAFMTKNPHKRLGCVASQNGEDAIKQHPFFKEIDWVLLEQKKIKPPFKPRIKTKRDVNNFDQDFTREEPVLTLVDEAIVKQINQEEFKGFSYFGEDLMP

[2] = biological target: Microtubule-associated serine/threonine-protein kinase 1 (Homo sapiens) (UniProt Q9Y2H9); assay: Selectivity interaction (KinomeScan (DiscoverX)) EUB0001079a MAST1; settings: at 1 µM
[3] = biological target: Non-receptor tyrosine-protein kinase TYK2 (Homo sapiens, UniProt P29597); settings: at 10 µM
[4] = biological target: Ribosomal protein S6 kinase beta-1 (Homo sapiens, UniProt P23443); assay: Selectivity interaction (Kinase screening (Upstate/Millipore)) EUB0000604a RPS6KB1
[5] = biological target: MAP kinase-activated protein kinase 2 (Homo sapiens, UniProt P49137); assay: Selectivity interaction (Kinase panel (33PanQinase(R) Activity Assay)) EUB0000877a MAPKAPK2
[6] = biological target: T2, Serine/threonine-protein kinase TBK1 (Homo sapiens) (UniProt Q9UHD2); assay: Selectivity interaction (Kinase panel (Invitrogen)) EUB0000639a TBK1; settings: at 200 nM
T2 sequence (whole entry): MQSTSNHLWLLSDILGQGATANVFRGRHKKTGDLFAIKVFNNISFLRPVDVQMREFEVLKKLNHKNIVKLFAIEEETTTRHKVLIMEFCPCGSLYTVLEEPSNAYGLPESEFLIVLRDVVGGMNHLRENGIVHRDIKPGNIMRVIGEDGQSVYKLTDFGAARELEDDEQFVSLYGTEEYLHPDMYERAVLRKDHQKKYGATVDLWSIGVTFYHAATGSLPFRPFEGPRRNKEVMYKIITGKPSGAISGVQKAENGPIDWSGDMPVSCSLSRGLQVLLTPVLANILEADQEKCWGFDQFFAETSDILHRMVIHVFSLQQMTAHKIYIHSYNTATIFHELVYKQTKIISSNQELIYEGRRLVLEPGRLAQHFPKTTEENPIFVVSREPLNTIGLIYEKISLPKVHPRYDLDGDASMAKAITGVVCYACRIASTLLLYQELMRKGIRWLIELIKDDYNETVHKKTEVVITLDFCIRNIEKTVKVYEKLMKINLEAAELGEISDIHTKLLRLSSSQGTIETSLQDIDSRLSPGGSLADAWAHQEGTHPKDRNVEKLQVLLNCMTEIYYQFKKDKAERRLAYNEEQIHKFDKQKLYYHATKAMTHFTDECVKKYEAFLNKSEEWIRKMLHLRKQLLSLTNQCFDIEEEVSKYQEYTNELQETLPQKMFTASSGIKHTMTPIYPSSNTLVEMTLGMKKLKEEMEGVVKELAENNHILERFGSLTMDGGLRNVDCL

[7] = biological target: T3, Cyclin-dependent kinase 11A (Homo sapiens) (UniProt Q9UQ88); assay: Selectivity interaction (ActivX KiNativ screen (kinase selectivity in THP-1 cell lysates)) EUB0000639a CDK11A; type: subcellular; settings: lysate, at 5 µM
T3 sequence (whole entry): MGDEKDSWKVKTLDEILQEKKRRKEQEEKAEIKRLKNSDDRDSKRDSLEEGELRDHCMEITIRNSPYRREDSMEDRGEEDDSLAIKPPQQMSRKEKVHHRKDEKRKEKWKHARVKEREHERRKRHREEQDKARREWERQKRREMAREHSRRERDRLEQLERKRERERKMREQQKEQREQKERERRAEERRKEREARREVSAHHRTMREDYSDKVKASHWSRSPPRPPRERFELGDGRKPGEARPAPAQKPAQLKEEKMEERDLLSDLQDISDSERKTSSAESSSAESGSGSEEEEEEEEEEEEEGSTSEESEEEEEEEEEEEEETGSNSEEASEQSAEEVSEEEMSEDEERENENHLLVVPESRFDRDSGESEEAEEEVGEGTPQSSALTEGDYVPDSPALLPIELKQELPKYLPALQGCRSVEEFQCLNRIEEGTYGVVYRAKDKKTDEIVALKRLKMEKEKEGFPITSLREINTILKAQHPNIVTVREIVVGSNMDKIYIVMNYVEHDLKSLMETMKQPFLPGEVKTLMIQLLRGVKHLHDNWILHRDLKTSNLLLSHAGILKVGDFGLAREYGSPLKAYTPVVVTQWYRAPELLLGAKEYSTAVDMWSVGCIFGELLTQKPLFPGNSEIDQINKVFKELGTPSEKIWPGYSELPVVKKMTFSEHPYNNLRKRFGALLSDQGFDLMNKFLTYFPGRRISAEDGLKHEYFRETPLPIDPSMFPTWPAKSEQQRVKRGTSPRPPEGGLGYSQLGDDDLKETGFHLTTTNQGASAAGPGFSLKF

Chain of Microtubule-associated serine/threonine-protein kinase 1 (Homo sapiens) (Q9Y2H9 whole entry, looked up): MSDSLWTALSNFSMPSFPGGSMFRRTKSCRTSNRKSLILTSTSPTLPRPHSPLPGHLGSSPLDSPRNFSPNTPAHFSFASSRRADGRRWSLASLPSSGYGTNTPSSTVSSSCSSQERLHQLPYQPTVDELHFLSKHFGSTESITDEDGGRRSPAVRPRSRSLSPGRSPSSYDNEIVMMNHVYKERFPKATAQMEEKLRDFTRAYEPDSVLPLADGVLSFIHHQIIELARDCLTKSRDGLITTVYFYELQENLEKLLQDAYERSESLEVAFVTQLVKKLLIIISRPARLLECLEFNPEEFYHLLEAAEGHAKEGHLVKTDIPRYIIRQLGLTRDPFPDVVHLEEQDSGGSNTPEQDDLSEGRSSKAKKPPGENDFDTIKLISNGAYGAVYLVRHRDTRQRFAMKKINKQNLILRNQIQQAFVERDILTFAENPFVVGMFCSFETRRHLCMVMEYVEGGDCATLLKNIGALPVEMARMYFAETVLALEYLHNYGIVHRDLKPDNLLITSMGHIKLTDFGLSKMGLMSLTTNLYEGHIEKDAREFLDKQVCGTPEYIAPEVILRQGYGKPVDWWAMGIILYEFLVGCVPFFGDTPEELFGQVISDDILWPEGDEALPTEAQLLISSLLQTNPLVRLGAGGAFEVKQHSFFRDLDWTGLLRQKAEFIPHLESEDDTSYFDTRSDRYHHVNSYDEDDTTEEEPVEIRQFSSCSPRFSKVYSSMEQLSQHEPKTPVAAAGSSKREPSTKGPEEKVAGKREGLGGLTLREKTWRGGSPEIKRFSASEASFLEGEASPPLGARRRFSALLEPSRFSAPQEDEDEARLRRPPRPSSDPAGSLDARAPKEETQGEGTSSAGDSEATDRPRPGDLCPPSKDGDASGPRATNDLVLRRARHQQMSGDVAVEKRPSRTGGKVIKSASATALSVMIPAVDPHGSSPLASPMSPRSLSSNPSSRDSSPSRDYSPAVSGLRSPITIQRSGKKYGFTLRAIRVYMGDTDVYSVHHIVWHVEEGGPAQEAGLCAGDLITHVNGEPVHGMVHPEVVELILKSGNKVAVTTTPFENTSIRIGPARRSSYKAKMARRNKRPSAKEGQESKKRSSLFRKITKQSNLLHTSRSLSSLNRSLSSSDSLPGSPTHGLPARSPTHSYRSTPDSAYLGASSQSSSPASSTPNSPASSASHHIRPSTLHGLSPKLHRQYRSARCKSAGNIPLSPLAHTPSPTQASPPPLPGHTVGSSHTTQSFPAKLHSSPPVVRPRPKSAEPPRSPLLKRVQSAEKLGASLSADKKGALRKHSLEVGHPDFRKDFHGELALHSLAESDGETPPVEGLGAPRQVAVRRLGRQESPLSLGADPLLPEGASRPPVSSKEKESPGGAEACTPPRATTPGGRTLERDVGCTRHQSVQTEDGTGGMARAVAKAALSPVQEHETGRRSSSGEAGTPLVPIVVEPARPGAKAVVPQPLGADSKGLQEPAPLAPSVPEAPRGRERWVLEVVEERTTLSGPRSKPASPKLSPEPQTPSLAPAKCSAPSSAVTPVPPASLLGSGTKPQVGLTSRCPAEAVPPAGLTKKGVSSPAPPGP
Chain of Non-receptor tyrosine-protein kinase TYK2 (P29597 whole entry): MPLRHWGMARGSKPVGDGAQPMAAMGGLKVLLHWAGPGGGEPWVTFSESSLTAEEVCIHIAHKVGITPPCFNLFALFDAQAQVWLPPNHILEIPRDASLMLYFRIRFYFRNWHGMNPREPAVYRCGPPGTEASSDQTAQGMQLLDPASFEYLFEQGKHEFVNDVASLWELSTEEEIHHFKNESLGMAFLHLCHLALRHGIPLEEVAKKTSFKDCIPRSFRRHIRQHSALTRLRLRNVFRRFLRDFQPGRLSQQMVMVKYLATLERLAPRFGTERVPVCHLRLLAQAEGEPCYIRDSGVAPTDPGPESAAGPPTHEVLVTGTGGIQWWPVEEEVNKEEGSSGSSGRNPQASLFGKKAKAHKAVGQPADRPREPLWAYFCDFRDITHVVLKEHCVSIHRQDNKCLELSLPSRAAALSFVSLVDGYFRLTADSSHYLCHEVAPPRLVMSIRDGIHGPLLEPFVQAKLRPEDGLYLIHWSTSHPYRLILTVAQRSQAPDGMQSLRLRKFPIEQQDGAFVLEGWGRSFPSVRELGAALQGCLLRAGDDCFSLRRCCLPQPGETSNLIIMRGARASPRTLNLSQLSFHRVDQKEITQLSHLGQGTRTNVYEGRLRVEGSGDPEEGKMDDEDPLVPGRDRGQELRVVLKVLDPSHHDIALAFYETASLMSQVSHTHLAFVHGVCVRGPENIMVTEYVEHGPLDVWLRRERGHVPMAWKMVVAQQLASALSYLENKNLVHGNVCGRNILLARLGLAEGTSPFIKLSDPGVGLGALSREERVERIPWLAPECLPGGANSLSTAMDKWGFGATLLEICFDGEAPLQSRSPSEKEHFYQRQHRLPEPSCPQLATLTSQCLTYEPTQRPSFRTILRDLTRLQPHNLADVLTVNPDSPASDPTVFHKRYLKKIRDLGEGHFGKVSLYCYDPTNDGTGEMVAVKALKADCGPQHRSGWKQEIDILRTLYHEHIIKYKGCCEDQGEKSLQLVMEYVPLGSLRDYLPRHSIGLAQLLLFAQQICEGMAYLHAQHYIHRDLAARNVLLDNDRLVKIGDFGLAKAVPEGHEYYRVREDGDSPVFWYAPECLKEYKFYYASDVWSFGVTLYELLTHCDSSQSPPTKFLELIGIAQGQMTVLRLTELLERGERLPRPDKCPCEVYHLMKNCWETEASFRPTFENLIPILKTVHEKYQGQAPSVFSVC
Chain of Ribosomal protein S6 kinase beta-1 (P23443 whole entry, looked up): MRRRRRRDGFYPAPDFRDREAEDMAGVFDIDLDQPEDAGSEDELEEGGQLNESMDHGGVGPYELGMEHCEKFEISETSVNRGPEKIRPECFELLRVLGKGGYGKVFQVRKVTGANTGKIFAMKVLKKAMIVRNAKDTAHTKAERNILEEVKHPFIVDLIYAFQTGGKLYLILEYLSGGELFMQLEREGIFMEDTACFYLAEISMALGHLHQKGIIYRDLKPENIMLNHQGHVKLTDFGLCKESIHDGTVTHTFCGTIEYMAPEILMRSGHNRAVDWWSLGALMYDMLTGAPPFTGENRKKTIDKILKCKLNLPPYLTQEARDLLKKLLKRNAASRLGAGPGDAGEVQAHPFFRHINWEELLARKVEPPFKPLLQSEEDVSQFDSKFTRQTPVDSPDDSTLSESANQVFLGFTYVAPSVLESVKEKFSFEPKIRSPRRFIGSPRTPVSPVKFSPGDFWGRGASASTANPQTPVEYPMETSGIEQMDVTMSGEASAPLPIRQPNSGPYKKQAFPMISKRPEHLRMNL
Chain of MAP kinase-activated protein kinase 2 (P49137 whole entry): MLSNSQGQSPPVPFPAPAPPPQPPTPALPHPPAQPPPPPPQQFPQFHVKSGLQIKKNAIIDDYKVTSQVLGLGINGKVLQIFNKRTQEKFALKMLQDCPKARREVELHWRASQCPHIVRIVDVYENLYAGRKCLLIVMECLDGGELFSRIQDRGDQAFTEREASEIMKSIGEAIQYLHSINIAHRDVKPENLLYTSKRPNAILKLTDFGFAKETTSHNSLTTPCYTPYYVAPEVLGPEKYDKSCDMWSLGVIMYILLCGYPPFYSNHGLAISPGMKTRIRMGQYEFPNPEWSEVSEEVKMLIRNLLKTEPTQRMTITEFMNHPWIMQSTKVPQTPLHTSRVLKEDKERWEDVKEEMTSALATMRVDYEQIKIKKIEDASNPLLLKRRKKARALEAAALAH

COc1cc(N(C)c2ccnc3ccc(C(F)(F)F)cc23)cc(OC)c1OC was tested, and the % binding [1] was 55%.

Nc1cnc(N2CCc3cc(S(=O)(=O)Nc4c(F)cc(Cl)cc4F)cc(N4CCCC4=O)c32)nc1 [TP-020n] was tested, and the % of control [2] was 97%.

Work on Cc1cc([C@@H](C)Nc2ccccc2C(=O)O)c2nc(N3CCOCC3)cc(=O)n2c1 [AZD-6482] yielded a % of control [3] of 100%.

Cc1cnc(Nc2ccc(F)cc2Cl)nc1-c1c[nH]c(C(=O)N[C@H](CO)c2cccc(Cl)c2)c1 gave a % of inhibition [4] of 18%.

CCC(=O)N1CC[C@H](Nc2ncnc3c2CN(c2cnc(OC)c(C(F)(F)F)c2)CC3)C1 [LENIOLISIB] gave an IC50 [5] of over 10 µM.

In the case of CC[C@@H]1[C@H](F)C(=O)N[C@@H]1COc1nccc2cc(C(N)=O)c(OC)cc12 [ZIMLOVISERTIB], the % of inhibition [6] is reported as 7.67% and the % of inhibition [7] is reported as -20.8%.
